pKd: −log10 of the molar value.

The text below walks through data of article PMC8005474 (Journal of neuro-oncology, 2021).

In the experiment the target is YAP1 (Yes-associated protein, YAP) (Homo sapiens, UniProt P46937). Briefly: SPR with immobilized full-length YAP. Type of experiment: binding.
Sequence of YAP1 (Yes-associated protein, YAP) (P46937 whole entry): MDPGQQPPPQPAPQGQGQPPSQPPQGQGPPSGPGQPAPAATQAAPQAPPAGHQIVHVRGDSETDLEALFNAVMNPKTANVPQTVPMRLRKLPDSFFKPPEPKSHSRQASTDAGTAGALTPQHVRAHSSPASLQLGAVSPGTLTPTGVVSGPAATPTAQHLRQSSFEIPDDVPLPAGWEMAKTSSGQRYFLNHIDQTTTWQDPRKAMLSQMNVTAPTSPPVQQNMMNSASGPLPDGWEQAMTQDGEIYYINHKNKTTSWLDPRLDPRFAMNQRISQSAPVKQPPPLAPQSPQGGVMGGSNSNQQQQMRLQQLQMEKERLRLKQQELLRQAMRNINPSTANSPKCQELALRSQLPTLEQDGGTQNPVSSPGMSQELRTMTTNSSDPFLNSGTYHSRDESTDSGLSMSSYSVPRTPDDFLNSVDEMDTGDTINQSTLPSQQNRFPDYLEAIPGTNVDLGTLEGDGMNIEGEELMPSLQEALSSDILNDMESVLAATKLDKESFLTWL

By pKd is commonly meant −log10 of the Kd, conventionally taken in molar units. Low readings indicate a large Kd, high ones a small Kd. The molecule `COc1ccc(-c2cc(-c3ccccc3)nc3c2CC(=O)Nc2ccccc2-3)cc1OC` [NSC682769] had a pKd of 6.13.
